Results on 1 compound are retold here after patent US12427187B2, “Glucose-responsive insulin conjugates” (priority 2019, dated 2025).

One assay deals with human IR(B) (Homo sapiens, UniProt P06213). The experiment in a line: Insulin receptor phosphorylation assay (MSD pIR). To be noted: Method B: IR phosphorylation assay, 384-well with automated liquid dispense; CHO cells expressing human IR(B); IP = inflection point; read-out: IR Activation IP. The class given is cell-based.
In assay [1] the target is human insulin receptor type B (IR(B)) (Homo sapiens, UniProt P06213). The experiment in a line: IR binding assay, scintillation proximity assay on cell membranes (Method D). To be noted: Method D: SPA IR binding assay; IP = inflection point.
Description: Method D: IR binding assay was run in a scintillation proximity assay (SPA) in 384-well format using cell membranes prepared from CHO cells overexpressing human IR(B) grown in F12 media containing 10% FBS and antibiotics (G418, Penicillin/Strepavidin). Cell membranes were prepared in 50 mM Tris buffer, pH 7.8 containing 5 mM MgCl2. The assay buffer contained 50 mM Tris buffer, pH 7.5, 150 mM NaCl, 1 mM CaCl2, 5mgCl2, 0.1% BSA and protease inhibitors (Complete-Mini-Roche). Cell membranes were added to WGA PVT PEI SPA beads (5 mg/mL final concentration) followed by addition of IOC molecules at appropriate concentrations.
The target of assay [2] is T1, Human macrophage mannose receptor 1 (MRC1) (Homo sapiens, UniProt P22897).
T1 sequence (P22897 19-1456): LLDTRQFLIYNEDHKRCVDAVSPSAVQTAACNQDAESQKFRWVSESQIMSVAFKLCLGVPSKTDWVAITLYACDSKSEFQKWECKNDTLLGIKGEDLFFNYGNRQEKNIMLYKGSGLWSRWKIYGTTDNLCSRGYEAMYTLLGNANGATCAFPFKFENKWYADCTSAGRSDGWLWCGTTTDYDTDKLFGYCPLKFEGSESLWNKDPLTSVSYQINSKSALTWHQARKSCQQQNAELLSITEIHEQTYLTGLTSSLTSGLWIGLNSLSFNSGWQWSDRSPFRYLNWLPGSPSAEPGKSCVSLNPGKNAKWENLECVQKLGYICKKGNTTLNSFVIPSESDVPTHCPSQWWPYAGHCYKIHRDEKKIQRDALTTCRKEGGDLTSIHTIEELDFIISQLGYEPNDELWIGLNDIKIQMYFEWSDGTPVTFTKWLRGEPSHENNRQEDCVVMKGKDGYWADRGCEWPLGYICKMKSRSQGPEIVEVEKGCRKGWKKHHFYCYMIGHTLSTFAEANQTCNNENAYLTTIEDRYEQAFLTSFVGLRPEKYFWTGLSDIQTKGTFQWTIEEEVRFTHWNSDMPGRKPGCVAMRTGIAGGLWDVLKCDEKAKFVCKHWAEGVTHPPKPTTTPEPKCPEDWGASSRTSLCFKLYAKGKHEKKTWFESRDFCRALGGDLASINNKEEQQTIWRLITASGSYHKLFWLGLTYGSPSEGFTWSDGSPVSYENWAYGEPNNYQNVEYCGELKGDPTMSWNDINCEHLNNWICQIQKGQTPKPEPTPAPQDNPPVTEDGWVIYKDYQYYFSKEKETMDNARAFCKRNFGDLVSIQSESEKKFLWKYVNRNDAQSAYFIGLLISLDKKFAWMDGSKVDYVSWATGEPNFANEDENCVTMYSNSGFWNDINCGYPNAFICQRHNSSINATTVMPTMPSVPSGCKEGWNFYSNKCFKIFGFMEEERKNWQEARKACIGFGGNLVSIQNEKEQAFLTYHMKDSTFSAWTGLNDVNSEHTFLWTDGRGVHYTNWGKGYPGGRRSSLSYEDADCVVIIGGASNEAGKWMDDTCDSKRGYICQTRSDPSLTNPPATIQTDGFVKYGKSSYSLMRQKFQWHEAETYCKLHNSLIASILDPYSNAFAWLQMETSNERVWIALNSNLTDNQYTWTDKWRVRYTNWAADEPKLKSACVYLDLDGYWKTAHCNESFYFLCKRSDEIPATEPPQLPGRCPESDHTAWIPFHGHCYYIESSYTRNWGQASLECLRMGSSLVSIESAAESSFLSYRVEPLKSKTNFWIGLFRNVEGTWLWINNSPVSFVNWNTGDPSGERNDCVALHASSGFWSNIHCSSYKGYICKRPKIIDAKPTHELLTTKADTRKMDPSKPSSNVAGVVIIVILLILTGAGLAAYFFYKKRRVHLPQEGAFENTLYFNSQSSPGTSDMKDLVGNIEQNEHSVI
The experiment in a line: MRC1 competition binding assay with Eu-mannosylated-BSA. The conditions noted are these: Method F: 384-well plate; IP = inflection point; read-out: MRC1 Binding IP.

Each structure is given as a SMILES string.

human insulin receptor type B (IR(B)), sequence (P06213 28-758 limits assumed): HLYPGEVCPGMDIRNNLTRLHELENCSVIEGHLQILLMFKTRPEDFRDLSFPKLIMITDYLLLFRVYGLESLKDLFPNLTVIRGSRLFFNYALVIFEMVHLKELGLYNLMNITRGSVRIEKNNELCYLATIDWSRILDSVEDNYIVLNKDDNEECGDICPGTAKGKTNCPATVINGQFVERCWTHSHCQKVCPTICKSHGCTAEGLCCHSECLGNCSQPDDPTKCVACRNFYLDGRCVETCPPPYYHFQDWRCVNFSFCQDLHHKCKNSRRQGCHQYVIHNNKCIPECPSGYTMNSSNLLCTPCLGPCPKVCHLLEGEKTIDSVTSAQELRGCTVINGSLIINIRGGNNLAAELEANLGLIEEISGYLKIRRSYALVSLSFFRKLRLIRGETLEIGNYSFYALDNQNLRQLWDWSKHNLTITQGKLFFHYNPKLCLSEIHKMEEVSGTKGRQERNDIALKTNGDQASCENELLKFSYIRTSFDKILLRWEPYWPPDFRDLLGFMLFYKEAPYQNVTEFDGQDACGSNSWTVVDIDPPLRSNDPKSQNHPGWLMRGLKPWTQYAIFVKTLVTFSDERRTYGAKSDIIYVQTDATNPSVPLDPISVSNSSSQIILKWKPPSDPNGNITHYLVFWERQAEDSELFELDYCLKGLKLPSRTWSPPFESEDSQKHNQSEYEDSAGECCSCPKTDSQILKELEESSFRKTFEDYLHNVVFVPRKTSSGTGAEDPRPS
human insulin receptor type B (IR(B)), sequence (P06213 763-1382 partner limits assumed): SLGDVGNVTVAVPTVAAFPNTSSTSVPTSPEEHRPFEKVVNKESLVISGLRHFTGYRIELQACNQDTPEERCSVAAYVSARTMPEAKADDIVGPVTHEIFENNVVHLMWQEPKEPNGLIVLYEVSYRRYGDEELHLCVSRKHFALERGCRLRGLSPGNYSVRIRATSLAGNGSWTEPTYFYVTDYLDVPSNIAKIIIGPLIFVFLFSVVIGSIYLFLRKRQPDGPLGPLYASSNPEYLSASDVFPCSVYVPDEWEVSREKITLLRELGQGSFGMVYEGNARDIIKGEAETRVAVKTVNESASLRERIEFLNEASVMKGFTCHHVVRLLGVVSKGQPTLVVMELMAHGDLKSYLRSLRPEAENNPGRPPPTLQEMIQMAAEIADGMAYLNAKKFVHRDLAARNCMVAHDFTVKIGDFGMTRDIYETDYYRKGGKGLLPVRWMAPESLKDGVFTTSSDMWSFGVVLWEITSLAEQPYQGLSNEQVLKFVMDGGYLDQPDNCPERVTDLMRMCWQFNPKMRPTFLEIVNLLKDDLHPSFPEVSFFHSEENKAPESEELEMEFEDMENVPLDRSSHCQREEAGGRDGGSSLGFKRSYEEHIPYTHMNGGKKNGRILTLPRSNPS
human IR(B), sequence (P06213 28-758 limits assumed): as the sequence (P06213 28-758 limits assumed) above
human IR(B), sequence (P06213 763-1382 partner limits assumed): as the sequence (P06213 763-1382 partner limits assumed) above
Description for human IR(B): CHO cells stably expressing human IR(B) were in grown in F12 cell media containing 10% FBS and antibiotics (G418, Penicillin/Strepavidin) for at least 8 hr, and then serum starved by switching to F12 media containing 0.5% BSA (insulin-free) in place of FBS for overnight growth. Cells were harvested and frozen in aliquots for use in the MSD pIR assay. Briefly, the frozen cells were plated in either 96-well (40,000 cells/well, Methods A) or 384-well (10,000 cells/well, Method B) clear tissue culture plates and allowed to recover. IOC molecules at the appropriate concentrations were added and the cells incubated for 8 min at 37° C. The media was aspirated and chilled MSD cell lysis buffer was added as per MSD kit instructions. The cells were lysed on ice for 40 min and the lysate then mixed for 10 min at rt. The lysate was transferred to the MSD kit pIR detection plates. The remainder of the assay was carried out following the MSD kit recommended protocol.
The in vitro biological activities towards insulin receptor (IR) were measured by either ligand competition assays or functional phosphorylation assays, as described above, labeled as following: Method A: IR phosphorylation assay based on 96-well; Method B: IR phosphorylation assay based on 384-well with automated liquid dispense; Method C: cell-based IR binding assay; Method D: SPA IR binding assay method E; Method E: MRC1 assay was performed in a 96-well plate; Method F: MRC1 assay was performed in a 384-well plate.

On to `CC(=O)[C@H](CCCCN)NC(=O)CCCCCNC(=O)[C@H](CCCCNC(=O)CCCCCNC(=O)CN(CC(=O)NCCO[C@H]1O[C@H](CO[C@H]2O[C@H](CO)[C@@H](O)[C@H](O)[C@@H]2O)[C@@H](O)[C@H](O[C@H]2O[C@H](CO)[C@@H](O)[C@H](O)[C@@H]2O)[C@@H]1O)CC(=O)NCCO[C@H]1O[C@H](CO[C@H]2O[C@H](CO)[C@@H](O)[C@H](O)[C@@H]2O)[C@@H](O)[C@H](O[C@H]2O[C@H](CO)[C@@H](O)[C@H](O)[C@@H]2O)[C@@H]1O)NC(=O)[C@H](CCCCNC(=O)CCCCCNC(=O)CN(CC(=O)NCCO[C@H]1O[C@H](CO[C@H]2O[C@H](CO)[C@@H](O)[C@H](O)[C@@H]2O)[C@@H](O)[C@H](O[C@H]2O[C@H](CO)[C@@H](O)[C@H](O)[C@@H]2O)[C@@H]1O)CC(=O)NCCO[C@H]1O[C@H](CO[C@H]2O[C@H](CO)[C@@H](O)[C@H](O)[C@@H]2O)[C@@H](O)[C@H](O[C@H]2O[C@H](CO)[C@@H](O)[C@H](O)[C@@H]2O)[C@@H]1O)NC(=O)CCCCCNC(=O)CN(CC(=O)NCCO[C@H]1O[C@H](CO[C@H]2O[C@H](CO)[C@@H](O)[C@H](O)[C@@H]2O)[C@@H](O)[C@H](O[C@H]2O[C@H](CO)[C@@H](O)[C@H](O)[C@@H]2O)[C@@H]1O)CC(=O)NCCO[C@H]1O[C@H](CO[C@H]2O[C@H](CO)[C@@H](O)[C@H](O)[C@@H]2O)[C@@H](O)[C@H](O[C@H]2O[C@H](CO)[C@@H](O)[C@H](O)[C@@H]2O)[C@@H]1O` [IOC-42], for which the EC50 at human IR(B) came out at 1.72 nM. In addition, the values for the IC50 in assay [1] and in assay [2] were 1.95 nM and 1.99 nM, respectively.
